What was measured:
LNCaP cells [1] = experiment: PSA assay on tissue culture supernatants of LNCaP cells cultured with iron chelator; format: cell-based; conditions: for Molecules PSA Per Viable Cell / Total PSA / Molecules PSA Per Cell: 72 Hrs; for Total PSA: from 3.0 ml supernatant per well; for Molecules PSA Per Cell: total cells recovered
Procedure: (§1) Comment: Table 2 is data from one of three similar experiments in which cells were cultured for 72 hours following the methods described in the proposal (i.e., cells in 6-well plates for PSA studies and cells in 96-well plates for thymidine incorporation, both at the same cell concentration). […] For viable cells, the per cell production of PSA rose 33.6% (column 8: PSA value of 1.5×10E7 molecules per cell divided by control value of 1.13×10E7). […]

LNCaP cells [2] = experiment: Thymidine (3H) incorporation, LNCaP cells in 96-well plates; format: cell-based; conditions: Homo sapiens, read-out: % Inhibition 3H
Procedure: Comment: Table 2 is data from one of three similar experiments in which cells were cultured for 72 hours following the methods described in the proposal (i.e., cells in 6-well plates for PSA studies and cells in 96-well plates for thymidine incorporation, both at the same cell concentration). […] For viable cells, the per cell production of PSA rose 33.6% (column 8: PSA value of 1.5×10E7 molecules per cell divided by control value of 1.13×10E7).

[3] = Cell counts and viability of LNCaP cells after culture with iron chelator; format: cell-based; conditions: human, LNCaP cells
Procedure: as §1

LNCaP cells [4] = experiment: as above; format: cell-based; conditions: 72 Hrs
Procedure: as §1

transferrin receptor = transferrin receptor (Homo sapiens, UniProt P02786); conditions: Forsbeck et al.; cited from earlier work
Chain of transferrin receptor (P02786 whole entry): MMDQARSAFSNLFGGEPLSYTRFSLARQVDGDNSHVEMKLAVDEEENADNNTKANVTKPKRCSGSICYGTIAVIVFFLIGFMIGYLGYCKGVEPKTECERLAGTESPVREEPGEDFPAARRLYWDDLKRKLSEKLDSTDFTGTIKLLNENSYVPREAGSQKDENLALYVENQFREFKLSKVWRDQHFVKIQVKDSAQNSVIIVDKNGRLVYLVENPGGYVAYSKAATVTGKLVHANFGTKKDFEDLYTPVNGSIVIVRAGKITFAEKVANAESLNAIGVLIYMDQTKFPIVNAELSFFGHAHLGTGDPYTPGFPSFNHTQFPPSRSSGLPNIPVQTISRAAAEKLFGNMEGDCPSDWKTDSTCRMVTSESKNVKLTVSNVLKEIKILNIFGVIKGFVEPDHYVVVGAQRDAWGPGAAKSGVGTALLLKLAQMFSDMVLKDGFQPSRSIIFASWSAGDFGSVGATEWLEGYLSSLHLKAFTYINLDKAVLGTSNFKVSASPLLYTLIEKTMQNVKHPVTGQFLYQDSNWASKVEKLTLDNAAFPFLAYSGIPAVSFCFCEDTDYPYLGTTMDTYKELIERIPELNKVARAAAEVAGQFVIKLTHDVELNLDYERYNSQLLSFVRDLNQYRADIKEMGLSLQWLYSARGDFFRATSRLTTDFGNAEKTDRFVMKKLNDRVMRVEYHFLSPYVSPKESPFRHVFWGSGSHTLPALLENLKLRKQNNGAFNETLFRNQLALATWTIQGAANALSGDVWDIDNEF

CC(=O)N(O)CCCCCNC(=O)CCC(=O)N(O)CCCCCNC(=O)CCC(=O)N(O)CCCCCN [Desferal, Deferoxamine]
rise in production of PSA per viable cell versus control (LNCaP cells [1]; DFO 2.5 micrograms/ml, 72 hours): 33.6%
Molecules PSA Per Viable Cell (LNCaP cells [1]; Desferal 0.1 ug/ml): 1.28 × 10^7
Total PSA (LNCaP cells [1]; Desferal 0.1 ug/ml): 710 ng
Molecules PSA Per Cell (LNCaP cells [1]; Desferal 0.1 ug/ml): 1.20 × 10^7
Molecules PSA Per Viable Cell (LNCaP cells [1]; Desferal 0.25 ug/ml): 1.30 × 10^7
Total PSA (LNCaP cells [1]; Desferal 0.25 ug/ml): 710 ng
Molecules PSA Per Cell (LNCaP cells [1]; Desferal 0.25 ug/ml): 1.22 × 10^7
Molecules PSA Per Viable Cell (LNCaP cells [1]; Desferal 0.50 ug/ml): 1.14 × 10^7
Total PSA (LNCaP cells [1]; Desferal 0.50 ug/ml): 650 ng
Molecules PSA Per Cell (LNCaP cells [1]; Desferal 0.50 ug/ml): 1.06 × 10^7
Molecules PSA Per Viable Cell (LNCaP cells [1]; Desferal 1.0 ug/ml): 1.12 × 10^7
Total PSA (LNCaP cells [1]; Desferal 1.0 ug/ml): 644 ng
Molecules PSA Per Cell (LNCaP cells [1]; Desferal 1.0 ug/ml): 1.04 × 10^7
Molecules PSA Per Viable Cell (LNCaP cells [1]; Desferal 2.0 ug/ml): 1.41 × 10^7
Total PSA (LNCaP cells [1]; Desferal 2.0 ug/ml): 642 ng
Molecules PSA Per Cell (LNCaP cells [1]; Desferal 2.0 ug/ml): 1.32 × 10^7
Molecules PSA Per Viable Cell (LNCaP cells [1]; Desferal 2.5 ug/ml): 1.51 × 10^7
Total PSA (LNCaP cells [1]; Desferal 2.5 ug/ml): 627 ng
Molecules PSA Per Cell (LNCaP cells [1]; Desferal 2.5 ug/ml): 1.42 × 10^7
Molecules PSA Per Viable Cell (LNCaP cells [1]; Desferal 3.0 ug/ml): 1.59 × 10^7
Total PSA (LNCaP cells [1]; Desferal 3.0 ug/ml): 587 ng
Molecules PSA Per Cell (LNCaP cells [1]; Desferal 3.0 ug/ml): 1.45 × 10^7
Molecules PSA Per Viable Cell (LNCaP cells [1]; Desferal 4.0 ug/ml): 1.80 × 10^7
Total PSA (LNCaP cells [1]; Desferal 4.0 ug/ml): 611 ng
Molecules PSA Per Cell (LNCaP cells [1]; Desferal 4.0 ug/ml): 1.54 × 10^7
inhibition at 0.1 µg/mL (LNCaP cells [2]): 1.8%
inhibition at 0.25 µg/mL (LNCaP cells [2]): 6.8%
inhibition at 0.5 µg/mL (LNCaP cells [2]): 7.4%
inhibition at 1 µg/mL (LNCaP cells [2]): 10.6%
inhibition at 2 µg/mL (LNCaP cells [2]): 21.1%
inhibition at 2.5 µg/mL (LNCaP cells [2]): 26.8%
inhibition at 3 µg/mL (LNCaP cells [2]): 40.3%
inhibition at 4 µg/mL (LNCaP cells [2]): 52.7%
viability at 72 h, 0.1 ug/ml ([3]; Desferal 0.1 ug/ml): 93%
viability at 72 h, 0.25 ug/ml ([3]; Desferal 0.25 ug/ml): 93.8%
viability at 72 h, 0.5 ug/ml ([3]; Desferal 0.50 ug/ml): 93.4%
viability at 72 h, 1 ug/ml ([3]; Desferal 1.0 ug/ml): 92.2%
viability at 72 h, 2 ug/ml ([3]; Desferal 2.0 ug/ml): 98.3%
viability at 72 h, 2.5 ug/ml ([3]; Desferal 2.5 ug/ml): 94.3%
viability at 72 h, 3 ug/ml ([3]; Desferal 3.0 ug/ml): 90.9%
viability at 72 h, 4 ug/ml ([3]; Desferal 4.0 ug/ml): 85.4%
Total Cells (LNCaP cells [4]; Desferal 0.1 ug/ml): 1.09 × 10^6
Total Viable Cells (LNCaP cells [4]; Desferal 0.1 ug/ml): 1.01 × 10^6
Total Cells (LNCaP cells [4]; Desferal 0.25 ug/ml): 1.07 × 10^6
Total Viable Cells (LNCaP cells [4]; Desferal 0.25 ug/ml): 1.00 × 10^6
Total Cells (LNCaP cells [4]; Desferal 0.50 ug/ml): 1.13 × 10^6
Total Viable Cells (LNCaP cells [4]; Desferal 0.50 ug/ml): 1.06 × 10^6
Total Cells (LNCaP cells [4]; Desferal 1.0 ug/ml): 1.14 × 10^6
Total Viable Cells (LNCaP cells [4]; Desferal 1.0 ug/ml): 1.05 × 10^6
Total Cells (LNCaP cells [4]; Desferal 2.0 ug/ml): .900 × 10^6
Total Viable Cells (LNCaP cells [4]; Desferal 2.0 ug/ml): 840 × 10^6
Total Cells (LNCaP cells [4]; Desferal 2.5 ug/ml): .810 × 10^6
Total Viable Cells (LNCaP cells [4]; Desferal 2.5 ug/ml): .760 × 10^6
Total Cells (LNCaP cells [4]; Desferal 3.0 ug/ml): .744 × 10^6
Total Viable Cells (LNCaP cells [4]; Desferal 3.0 ug/ml): .680 × 10^6
Total Cells (LNCaP cells [4]; Desferal 4.0 ug/ml): .730 × 10^6
Total Viable Cells (LNCaP cells [4]; Desferal 4.0 ug/ml): .620 × 10^6

Cc1ccc(C(=O)Nc2ccc(S(=O)(=O)O)c3cc(S(=O)(=O)O)cc(S(=O)(=O)O)c23)cc1NC(=O)c1cccc(NC(=O)Nc2cccc(C(=O)Nc3cc(C(=O)Nc4ccc(S(=O)(=O)O)c5cc(S(=O)(=O)O)cc(S(=O)(=O)O)c45)ccc3C)c2)c1 [suramin]
binding of transferrin to its receptor (transferrin receptor): partially inhibit
